The text below walks through data of ChEMBL document CHEMBL1687791, “Identification and characterization of four azole-resistant erg3 mutants of Candida albicans” (2010).

Structures are written as SMILES. Values after ≈ are worked out from the molar mass of the structure shown.

What all share (format): functional
Assay [1] concerns Candida albicans. Put plainly: Antifungal activity against Candida albicans isolate 177 by broth dilution method. On the technique in general: Broth dilution looks for growth in wells or tubes with falling amounts of substance.
In assay [2] the test system is Candida albicans. Put plainly: Antifungal activity against Candida albicans isolate 1008 harboring ERG3 K97E, L193P, V237A, A351V, A353T and ERG11 E266D mutant genes by broth microdilution method.
In assay [3] the test system is Candida albicans. Briefly: Antifungal activity against Candida albicans isolate 488 harboring ERG3 H243N, T330A, A351V and ERG11 D225G, E266D, E391G, V488I mutant genes by broth microdilution method.
For assay [4], the system named is Candida albicans. Briefly: Antifungal activity against Candida albicans isolate 6 by broth microdilution method.
Assay [5] has as its system Candida albicans. Put plainly: Antifungal activity against Candida albicans isolate 490 harboring ERG3 D147G, T330A, A351V and ERG11 F72S, T229A, E266D, N440S, V488I, R523G mutant genes by broth microdilution method.
In assay [6] the test system is Candida albicans. Put plainly: Antifungal activity against Candida albicans isolate 12 harboring ERG3 W332R mutant gene by broth microdilution method.
Assay [7] concerns Candida albicans. Briefly: Antifungal activity against Candida albicans isolate 14 by broth microdilution method.
The test system of assay [8] is Candida albicans. Briefly: Antifungal activity against Candida albicans isolate 177 assessed as 14alpha-methyl fecosterol content in total sterol composition at 0.5 times MIC by GC-MS analysis.
Assay [9] concerns Candida albicans. Put plainly: Antifungal activity against Candida albicans isolate 490 harboring ERG3 D147G, T330A, A351V and ERG11 F72S, T229A, E266D, N440S, V488I, R523G mutant genes assessed as ergosterol content in total sterol composition at 0.5 times MIC by GC-MS analysis.
Assay [10] has as its system Candida albicans. Put plainly: Antifungal activity against Candida albicans isolate 1008 harboring ERG3 K97E, L193P, V237A, A351V, A353T and ERG11 E266D mutant genes assessed as ergosta 7,22-dienol content in total sterol composition at 0.5 times MIC by GC-MS analysis.
Assay [11] concerns Candida albicans. Put plainly: Antifungal activity against Candida albicans isolate 1008 harboring ERG3 K97E, L193P, V237A, A351V, A353T and ERG11 E266D mutant genes assessed as 14alpha-methyl fecosterol content in total sterol composition at 0.5 times MIC by GC-MS analysis.
The test system of assay [12] is Candida albicans. Briefly: Antifungal activity against Candida albicans isolate 14 by broth microdilution method in presence of 10 uM drug efflux inhibitor FK506.
Assay [13] relates to Candida albicans. Put plainly: Antifungal activity against Candida albicans isolate 14 assessed as lanosterol/obtusifoliol content in total sterol composition at 0.5 times MIC by GC-MS analysis.
Assay [14] relates to Candida albicans. Briefly: Antifungal activity against Candida albicans isolate 14 assessed as ergosterol content in total sterol composition at 0.5 times MIC by GC-MS analysis.
The subject of assay [15] is Candida albicans. Briefly: Antifungal activity against Candida albicans isolate 6 assessed as ergosterol content in total sterol composition at 0.5 times MIC by GC-MS analysis.
The subject of assay [16] is Candida albicans. Put plainly: Antifungal activity against Candida albicans isolate 1008 harboring ERG3 K97E, L193P, V237A, A351V, A353T and ERG11 E266D mutant genes assessed as lanosterol/obtusifoliol content in total sterol composition at 0.5 times MIC by GC-MS analysis.
In assay [17] the test system is Candida albicans. Briefly: Antifungal activity against Candida albicans isolate 177 by broth dilution method in presence of 10 uM drug efflux inhibitor FK506.
Assay [18] concerns Candida albicans. Briefly: Antifungal activity against Candida albicans isolate 490 harboring ERG3 D147G, T330A, A351V and ERG11 F72S, T229A, E266D, N440S, V488I, R523G mutant genes assessed as 14alpha-methyl fecosterol content in total sterol composition at 0.5 times MIC by GC-MS analysis.
The test system of assay [19] is Candida albicans. Put plainly: Antifungal activity against Candida albicans isolate 490 harboring ERG3 D147G, T330A, A351V and ERG11 F72S, T229A, E266D, N440S, V488I, R523G mutant genes assessed as 14alpha-methylergosta-8,24(28)-dien-3beta,6alpha-diol content in total sterol composition at 0.5 times MIC by GC-MS analysis.
In assay [20] the test system is Candida albicans. Briefly: Antifungal activity against Candida albicans isolate 14 assessed as 14alpha-methylergosta-8,24(28)-dien-3beta,6alpha-diol content in total sterol composition at 0.5 times MIC by GC-MS analysis.
Assay [21] concerns Candida albicans. Put plainly: Antifungal activity against Candida albicans isolate 12 harboring ERG3 W332R mutant gene assessed as ergosterol content in total sterol composition at 0.5 times MIC by GC-MS analysis.
Assay [22] relates to Candida albicans. Briefly: Antifungal activity against Candida albicans isolate 6 assessed as eburicol content in total sterol composition at 0.5 times MIC by GC-MS analysis.
The subject of assay [23] is Candida albicans. Briefly: Antifungal activity against Candida albicans isolate 488 harboring ERG3 H243N, T330A, A351V and ERG11 D225G, E266D, E391G, V488I mutant genes assessed as 14alpha-methyl fecosterol content in total sterol composition at 0.5 times MIC by GC-MS analysis.
For assay [24], the system named is Candida albicans. Put plainly: Antifungal activity against Candida albicans isolate 12 harboring ERG3 W332R mutant gene by broth microdilution method in presence of 10 uM drug efflux inhibitor FK506.
Assay [25] concerns Candida albicans. Briefly: Antifungal activity against Candida albicans isolate 12 harboring ERG3 W332R mutant gene assessed as 14alpha-methylergosta-8,24(28)-dien-3beta,6alpha-diol content in total sterol composition at 0.5 times MIC by GC-MS analysis.
The test system of assay [26] is Candida albicans. Briefly: Antifungal activity against Candida albicans isolate 1008 harboring ERG3 K97E, L193P, V237A, A351V, A353T and ERG11 E266D mutant genes assessed as eburicol content in total sterol composition at 0.5 times MIC by GC-MS analysis.
The subject of assay [27] is Candida albicans. Put plainly: Antifungal activity against Candida albicans isolate 6 assessed as 14alpha-methylergosta-8,24(28)-dien-3beta,6alpha-diol content in total sterol composition at 0.5 times MIC by GC-MS analysis.
Assay [28] concerns Candida albicans. Put plainly: Antifungal activity against Candida albicans isolate 12 harboring ERG3 W332R mutant gene assessed as 14alpha-methyl fecosterol content in total sterol composition at 0.5 times MIC by GC-MS analysis.
For assay [29], the system named is Candida albicans. Briefly: Antifungal activity against Candida albicans isolate 488 harboring ERG3 H243N, T330A, A351V and ERG11 D225G, E266D, E391G, V488I mutant genes assessed as eburicol content in total sterol composition at 0.5 times MIC by GC-MS analysis.
The subject of assay [30] is Candida albicans. Put plainly: Antifungal activity against Candida albicans isolate 12 harboring ERG3 W332R mutant gene assessed as eburicol content in total sterol composition at 0.5 times MIC by GC-MS analysis.
Assay [31] concerns Candida albicans. Briefly: Antifungal activity against Candida albicans isolate 1008 harboring ERG3 K97E, L193P, V237A, A351V, A353T and ERG11 E266D mutant genes by broth microdilution method in presence of 10 uM drug efflux inhibitor FK506.
The test system of assay [32] is Candida albicans. Briefly: Antifungal activity against Candida albicans isolate 177 assessed as 14alpha-methylergosta-8,24(28)-dien-3beta,6alpha-diol content in total sterol composition at 0.5 times MIC by GC-MS analysis.
Assay [33] deals with Candida albicans. Briefly: Antifungal activity against Candida albicans isolate 488 harboring ERG3 H243N, T330A, A351V and ERG11 D225G, E266D, E391G, V488I mutant genes by broth microdilution method in presence of 10 uM drug efflux inhibitor FK506.
For assay [34], the system named is Candida albicans. Put plainly: Antifungal activity against Candida albicans isolate 488 harboring ERG3 H243N, T330A, A351V and ERG11 D225G, E266D, E391G, V488I mutant genes assessed as lanosterol/obtusifoliol content in total sterol composition at 0.5 times MIC by GC-MS analysis.
Assay [35] has as its system Candida albicans. Briefly: Antifungal activity against Candida albicans isolate 177 assessed as ergosterol content in total sterol composition at 0.5 times MIC by GC-MS analysis.
Assay [36] has as its system Candida albicans. Briefly: Antifungal activity against Candida albicans isolate 490 harboring ERG3 D147G, T330A, A351V and ERG11 F72S, T229A, E266D, N440S, V488I, R523G mutant genes by broth microdilution method in presence of 10 uM drug efflux inhibitor FK506.
Assay [37] relates to Candida albicans. Briefly: Antifungal activity against Candida albicans isolate 12 harboring ERG3 W332R mutant gene assessed as lanosterol/obtusifoliol content in total sterol composition at 0.5 times MIC by GC-MS analysis.
Assay [38] concerns Candida albicans. Put plainly: Antifungal activity against Candida albicans isolate 177 assessed as eburicol content in total sterol composition at 0.5 times MIC by GC-MS analysis.
Assay [39] concerns Candida albicans. Put plainly: Antifungal activity against Candida albicans isolate 6 by broth microdilution method in presence of 10 uM drug efflux inhibitor FK506.
Assay [40] relates to Candida albicans. Briefly: Antifungal activity against Candida albicans isolate 488 harboring ERG3 H243N, T330A, A351V and ERG11 D225G, E266D, E391G, V488I mutant genes assessed as ergosterol content in total sterol composition at 0.5 times MIC by GC-MS analysis.

As to `C[C@@H]1[C@H](O)[C@@H](C)/C=C/C=C/C=C/C=C/C=C/C=C/C=C/[C@H](O[C@@H]2O[C@H](C)[C@@H](O)[C@H](N)[C@@H]2O)C[C@@H]2O[C@](O)(C[C@@H](O)C[C@@H](O)[C@H](O)CC[C@@H](O)C[C@@H](O)CC(=O)O[C@H]1C)C[C@H](O)[C@H]2C(=O)O` [AMPHOTERICIN B], the MIC in [1] worked out at 0.25 µg/mL (≈ 0.271 µM); in assay [2], 1 µg/mL (≈ 1.08 µM); in [3] it was 0.25 µg/mL (≈ 0.271 µM); in assay [4], 0.25 µg/mL (≈ 0.271 µM); in assay [5], 0.25 µg/mL (≈ 0.271 µM); in assay [6], 0.5 µg/mL (≈ 0.541 µM). In [7], this molecule came in with an MIC of 0.25 µg/mL (≈ 0.271 µM).
Turning to `Clc1ccccc1C(c1ccccc1)(c1ccccc1)n1ccnc1` [CLOTRIMAZOLE], the MIC in assay [1], in assay [2], in [3], in assay [4], in [5] and in assay [6] was 1 µg/mL (≈ 2.9 µM) in each case. The same molecule returned an MIC in [7] of 0.0625 µg/mL (≈ 0.181 µM).
Turning to `CCC(C)n1ncn(-c2ccc(N3CCN(c4ccc(OCC5COC(Cn6cncn6)(c6ccc(Cl)cc6Cl)O5)cc4)CC3)cc2)c1=O` (stereo not drawn) [ITRACONAZOLE], the minimal inhibitory concentration (MIC) was 16 µg/mL (≈ 22.7 µM) in assay [1]; greater than 16 µg/mL in [2]; greater than 16 µg/mL in assay [3]; 16 µg/mL (≈ 22.7 µM) in assay [4]; greater than 16 µg/mL in [5]; greater than 16 µg/mL in assay [6]. In assay [7], inhibition of growth (MIC) required 0.0625 µg/mL (≈ 0.0886 µM).
Regarding `CC(=O)N1CCN(c2ccc(OCC3COC(Cn4ccnc4)(c4ccc(Cl)cc4Cl)O3)cc2)CC1` (stereo not drawn) [KETOCONAZOLE], the MIC in [1] was 16 µg/mL (≈ 30.1 µM); in assay [2] it was greater than 16 µg/mL; in [3] it was 8 µg/mL (≈ 15.1 µM); in [4] it was 16 µg/mL (≈ 30.1 µM); in assay [5], 8 µg/mL (≈ 15.1 µM); in assay [6] it was greater than 16 µg/mL. Moreover, in assay [7], the lowest concentration to inhibit growth (MIC) was 0.0625 µg/mL (≈ 0.118 µM).
For the molecule `C[C@@H](c1ncncc1F)[C@](O)(Cn1cncn1)c1ccc(F)cc1F` [VORICONAZOLE], the Activity in assay [8] is listed as 2.9%; in assay [9], 6.3%; in [10], 2.2%; in assay [11] it was 65.1%; in assay [13] it was 24.1%; in assay [14], 47.3%. The Activity is 46.1% in [15]; 19% in assay [16]; 69.1% in [18]; 13.5% in assay [19]; 28.6% in assay [20]; 2.9% in assay [21]. Further, the Activity in assay [22] was determined as 4.8%; in assay [23], 57.2%; in [25], 1.8%; in assay [26], 13.7%; in [27], 37.2%; in [28] it was 69.2%. Further, the Activity in [29] was 7.5%; in assay [30], 9.9%; in [32] it was 35.4%; in assay [34], 15.8%; in assay [35], 45%; in assay [37], 16.2%. For the same molecule, the results for the Activity in [38] and in assay [40] were 5% and 8%, respectively. Besides, the MIC was less than 0.0625 µg/mL in assay [12]; 16 µg/mL (≈ 45.8 µM) in [1]; less than 0.0625 µg/mL in assay [17]; greater than 16 µg/mL in assay [2]; greater than 16 µg/mL in [3]; greater than 16 µg/mL in assay [24]. Further, the MIC was 16 µg/mL (≈ 45.8 µM) in [4]; greater than 16 µg/mL in assay [5]; greater than 16 µg/mL in assay [6]; 0.0625 µg/mL (≈ 0.179 µM) in [7]; greater than 16 µg/mL in assay [31]; 0.0625 µg/mL in assay [33]. Moreover, the figures for the minimum inhibitory concentration (MIC) in assay [36] and in assay [39] were 0.0625 µg/mL and less than 0.0625 µg/mL, respectively.

As a reminder, the MIC is the least concentration at which growth counts as inhibited.
